Columns and labels:
Assay in all cases: relative viability (nuclei count vs DMSO), 5 days (fraction); higher = more cells survive
Bleomycin + Trametinib = compound: CC1=C(N=C(N=C1N)[C@H](CC(=O)N)NC[C@@H](C(=O)N)N)C(=O)N[C@@H]([C@H](C2=CN=CN2)OC3C(C(C(C(O3)CO)O)O)OC4C(C(C(C(O4)CO)O)OC(=O)N)O)C(=O)N[C@H](C)[C@H]([C@H](C)C(=O)N[C@@H]([C@@H](C)O)C(=O)NCCC5=NC(=CS5)C6=NC(=CS6)C(=O)NCCC[S+](C)C)O [Bleomycin] + CC(=O)Nc1cccc(-n2c(=O)n(C3CC3)c(=O)c3c(Nc4ccc(I)cc4F)n(C)c(=O)c(C)c32)c1 [Trametinib] (partner 0.02 µM); details: main component drawn
Summary of the method: (§1)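 A single step with final 0.05% Triton X-100, 1% formaldehyde and 1 ug/ml Hoechst fixed the cells and stained nuclei 5 days after treatment. Lung cancer cell lines in 1536-well plates had been treated by pin tool the day after seeding with one drug alone or a fixed anchor-drug dose plus five library-drug doses (not always all listed) in √10 steps, and nuclei were counted on 4× images. Relative viability is the ratio of nuclei in treated wells to nuclei in vehicle wells, taken as the median of duplicate plates.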

Bleomycin + Pictilisib = compound: CC1=C(N=C(N=C1N)[C@H](CC(=O)N)NC[C@@H](C(=O)N)N)C(=O)N[C@@H]([C@H](C2=CN=CN2)OC3C(C(C(C(O3)CO)O)O)OC4C(C(C(C(O4)CO)O)OC(=O)N)O)C(=O)N[C@H](C)[C@H]([C@H](C)C(=O)N[C@@H]([C@@H](C)O)C(=O)NCCC5=NC(=CS5)C6=NC(=CS6)C(=O)NCCC[S+](C)C)O [Bleomycin] + CS(=O)(=O)N1CCN(Cc2cc3nc(-c4cccc5[nH]ncc45)nc(N4CCOCC4)c3s2)CC1 [Pictilisib] (partner 1 µM); details: main component drawn
Summary of the method: as §1

Bleomycin + AZD7762 = compound: CC1=C(N=C(N=C1N)[C@H](CC(=O)N)NC[C@@H](C(=O)N)N)C(=O)N[C@@H]([C@H](C2=CN=CN2)OC3C(C(C(C(O3)CO)O)O)OC4C(C(C(C(O4)CO)O)OC(=O)N)O)C(=O)N[C@H](C)[C@H]([C@H](C)C(=O)N[C@@H]([C@@H](C)O)C(=O)NCCC5=NC(=CS5)C6=NC(=CS6)C(=O)NCCC[S+](C)C)O [Bleomycin] + NC(=O)Nc1cc(-c2cccc(F)c2)sc1C(=O)N[C@H]1CCCNC1 [AZD7762] (partner 0.2 µM); details: main component drawn
Summary of the method: as §1

Etoposide + Phenformin = compound: COc1cc([C@@H]2c3cc4c(cc3[C@@H](O[C@@H]3O[C@@H]5CO[C@@H](C)O[C@H]5[C@H](O)[C@H]3O)[C@H]3COC(=O)[C@H]23)OCO4)cc(OC)c1O [Etoposide] + N=C(N)NC(=N)NCCc1ccccc1 [Phenformin] (partner 250 µM)
Summary of the method: as §1

NCI-H2170
relative viability (Bleomycin + Trametinib; first compound 0.01 µM): 0.89 | relative viability (Bleomycin + Trametinib; first compound 0.03162 µM): 0.89 | relative viability (Bleomycin + Trametinib; first compound 0.1 µM): 0.808 | relative viability (Bleomycin + Trametinib; first compound 0.3162 µM): 0.559 | relative viability (Bleomycin + Trametinib; first compound 1 µM): 0.468 | relative viability (Bleomycin + Pictilisib; first compound 0.01 µM): 0.376 | relative viability (Bleomycin + Pictilisib; first compound 0.03162 µM): 0.304 | relative viability (Bleomycin + Pictilisib; first compound 0.1 µM): 0.297 | relative viability (Bleomycin + Pictilisib; first compound 0.3162 µM): 0.256 | relative viability (Bleomycin + Pictilisib; first compound 1 µM): 0.262 | relative viability (Bleomycin + AZD7762; first compound 0.01 µM): 0.781 | relative viability (Bleomycin + AZD7762; first compound 0.03162 µM): 0.63 | relative viability (Bleomycin + AZD7762; first compound 0.1 µM): 0.687 | relative viability (Bleomycin + AZD7762; first compound 0.3162 µM): 0.467 | relative viability (Bleomycin + AZD7762; first compound 1 µM): 0.421 | relative viability (Etoposide + Phenformin; first compound 0.01 µM): 0.373 | relative viability (Etoposide + Phenformin; first compound 0.03162 µM): 0.429 | relative viability (Etoposide + Phenformin; first compound 0.1 µM): 0.468 | relative viability (Etoposide + Phenformin; first compound 0.3162 µM): 0.409 | relative viability (Etoposide + Phenformin; first compound 1 µM): 0.348

NCI-H727
relative viability (Bleomycin + Trametinib; first compound 0.01 µM): 0.376 | relative viability (Bleomycin + Trametinib; first compound 0.03162 µM): 0.321 | relative viability (Bleomycin + Trametinib; first compound 0.1 µM): 0.392 | relative viability (Bleomycin + Trametinib; first compound 0.3162 µM): 0.404 | relative viability (Bleomycin + Trametinib; first compound 1 µM): 0.406 | relative viability (Bleomycin + Pictilisib; first compound 0.01 µM): 0.375 | relative viability (Bleomycin + Pictilisib; first compound 0.03162 µM): 0.299 | relative viability (Bleomycin + Pictilisib; first compound 0.1 µM): 0.268 | relative viability (Bleomycin + Pictilisib; first compound 0.3162 µM): 0.239 | relative viability (Bleomycin + Pictilisib; first compound 1 µM): 0.357 | relative viability (Bleomycin + AZD7762; first compound 0.01 µM): 0.683 | relative viability (Bleomycin + AZD7762; first compound 0.03162 µM): 0.574 | relative viability (Bleomycin + AZD7762; first compound 0.1 µM): 0.451 | relative viability (Bleomycin + AZD7762; first compound 0.3162 µM): 0.33 | relative viability (Bleomycin + AZD7762; first compound 1 µM): 0.463 | relative viability (Etoposide + Phenformin; first compound 0.01 µM): 0.556 | relative viability (Etoposide + Phenformin; first compound 0.03162 µM): 0.664 | relative viability (Etoposide + Phenformin; first compound 0.3162 µM): 0.531 | relative viability (Etoposide + Phenformin; first compound 1 µM): 0.437

HCC-15
relative viability (Bleomycin + Trametinib; first compound 0.01 µM): 0.348 | relative viability (Bleomycin + Trametinib; first compound 0.03162 µM): 0.338 | relative viability (Bleomycin + Trametinib; first compound 0.1 µM): 0.365 | relative viability (Bleomycin + Trametinib; first compound 0.3162 µM): 0.209 | relative viability (Bleomycin + Trametinib; first compound 1 µM): 0.186 | relative viability (Bleomycin + Pictilisib; first compound 0.01 µM): 0.685 | relative viability (Bleomycin + Pictilisib; first compound 0.03162 µM): 0.693 | relative viability (Bleomycin + Pictilisib; first compound 0.1 µM): 0.627 | relative viability (Bleomycin + Pictilisib; first compound 0.3162 µM): 0.199 | relative viability (Bleomycin + Pictilisib; first compound 1 µM): 0.219 | relative viability (Bleomycin + AZD7762; first compound 0.01 µM): 1.07 | relative viability (Bleomycin + AZD7762; first compound 0.03162 µM): 1.03 | relative viability (Bleomycin + AZD7762; first compound 0.1 µM): 1.13 | relative viability (Bleomycin + AZD7762; first compound 0.3162 µM): 0.579 | relative viability (Bleomycin + AZD7762; first compound 1 µM): 0.599 | relative viability (Etoposide + Phenformin; first compound 0.01 µM): 0.496 | relative viability (Etoposide + Phenformin; first compound 0.03162 µM): 0.526 | relative viability (Etoposide + Phenformin; first compound 0.1 µM): 0.429 | relative viability (Etoposide + Phenformin; first compound 0.3162 µM): 0.152 | relative viability (Etoposide + Phenformin; first compound 1 µM): 0.132

LCLC-103H
relative viability (Bleomycin + Trametinib; first compound 0.01 µM): 0.628 | relative viability (Bleomycin + Trametinib; first compound 0.03162 µM): 0.678 | relative viability (Bleomycin + Trametinib; first compound 0.1 µM): 0.62 | relative viability (Bleomycin + Trametinib; first compound 0.3162 µM): 0.691 | relative viability (Bleomycin + Trametinib; first compound 1 µM): 0.507 | relative viability (Bleomycin + Pictilisib; first compound 0.01 µM): 0.638 | relative viability (Bleomycin + Pictilisib; first compound 0.03162 µM): 0.573 | relative viability (Bleomycin + Pictilisib; first compound 0.1 µM): 0.54 | relative viability (Bleomycin + Pictilisib; first compound 0.3162 µM): 0.34 | relative viability (Bleomycin + Pictilisib; first compound 1 µM): 0.255 | relative viability (Bleomycin + AZD7762; first compound 0.01 µM): 0.7 | relative viability (Bleomycin + AZD7762; first compound 0.03162 µM): 0.8 | relative viability (Bleomycin + AZD7762; first compound 0.1 µM): 0.792 | relative viability (Bleomycin + AZD7762; first compound 0.3162 µM): 0.666 | relative viability (Bleomycin + AZD7762; first compound 1 µM): 0.418 | relative viability (Etoposide + Phenformin; first compound 0.01 µM): 0.316 | relative viability (Etoposide + Phenformin; first compound 0.03162 µM): 0.348 | relative viability (Etoposide + Phenformin; first compound 0.1 µM): 0.329 | relative viability (Etoposide + Phenformin; first compound 0.3162 µM): 0.346 | relative viability (Etoposide + Phenformin; first compound 1 µM): 0.305

NCI-H460
relative viability (Bleomycin + Trametinib; first compound 0.01 µM): 0.107 | relative viability (Bleomycin + Trametinib; first compound 0.03162 µM): 0.0848 | relative viability (Bleomycin + Trametinib; first compound 0.1 µM): 0.0692 | relative viability (Bleomycin + Trametinib; first compound 0.3162 µM): 0.0357 | relative viability (Bleomycin + Trametinib; first compound 1 µM): 0.0155 | relative viability (Bleomycin + Pictilisib; first compound 0.01 µM): 0.307 | relative viability (Bleomycin + Pictilisib; first compound 0.03162 µM): 0.285 | relative viability (Bleomycin + Pictilisib; first compound 0.1 µM): 0.244 | relative viability (Bleomycin + Pictilisib; first compound 0.3162 µM): 0.0358 | relative viability (Bleomycin + Pictilisib; first compound 1 µM): 0.1 | relative viability (Bleomycin + AZD7762; first compound 0.01 µM): 0.409 | relative viability (Bleomycin + AZD7762; first compound 0.03162 µM): 0.475 | relative viability (Bleomycin + AZD7762; first compound 0.1 µM): 0.269 | relative viability (Bleomycin + AZD7762; first compound 0.3162 µM): 0.134 | relative viability (Bleomycin + AZD7762; first compound 1 µM): 0.0663 | relative viability (Etoposide + Phenformin; first compound 0.01 µM): 0.476 | relative viability (Etoposide + Phenformin; first compound 0.03162 µM): 0.492 | relative viability (Etoposide + Phenformin; first compound 0.1 µM): 0.352 | relative viability (Etoposide + Phenformin; first compound 0.3162 µM): 0.0419 | relative viability (Etoposide + Phenformin; first compound 1 µM): 0.0382

EPLC-272H
relative viability (Bleomycin + Trametinib; first compound 0.01 µM): 0.302 | relative viability (Bleomycin + Trametinib; first compound 0.03162 µM): 0.256 | relative viability (Bleomycin + Trametinib; first compound 0.1 µM): 0.207 | relative viability (Bleomycin + Trametinib; first compound 0.3162 µM): 0.193 | relative viability (Bleomycin + Trametinib; first compound 1 µM): 0.184 | relative viability (Bleomycin + Pictilisib; first compound 0.01 µM): 0.288 | relative viability (Bleomycin + Pictilisib; first compound 0.03162 µM): 0.352 | relative viability (Bleomycin + Pictilisib; first compound 0.1 µM): 0.265 | relative viability (Bleomycin + Pictilisib; first compound 0.3162 µM): 0.137 | relative viability (Bleomycin + Pictilisib; first compound 1 µM): 0.161 | relative viability (Bleomycin + AZD7762; first compound 0.01 µM): 0.208 | relative viability (Bleomycin + AZD7762; first compound 0.03162 µM): 0.192 | relative viability (Bleomycin + AZD7762; first compound 0.1 µM): 0.145 | relative viability (Bleomycin + AZD7762; first compound 0.3162 µM): 0.114 | relative viability (Bleomycin + AZD7762; first compound 1 µM): 0.112 | relative viability (Etoposide + Phenformin; first compound 0.01 µM): 0.281 | relative viability (Etoposide + Phenformin; first compound 0.03162 µM): 0.308 | relative viability (Etoposide + Phenformin; first compound 0.1 µM): 0.267 | relative viability (Etoposide + Phenformin; first compound 0.3162 µM): 0.263 | relative viability (Etoposide + Phenformin; first compound 1 µM): 0.226

Reference: the supplement of paper PMC10307832
